In publication PMC9400670, “Establishing the selective phospholipid membrane coordination, permeation and lysis properties for a series of ‘druggable’ supramolecular self-associating antimicrobial amphiphiles” (Chemical Science, 2022):

Test system: human intestinal Caco-2 cells
Assay: Caco-2 permeability assay
Format: in vitro ADME
Protocol: Section 4: DMPK Methods and Further Discussion […]
Caco-2 Permeability studies: The permeability assay for SSA 1-6 and 10 was performed at Cyprotex Discovery Limited (Macclesfield, UK) and analysed at Cancer Research Horizons. SSA 1-6 and 10 were incubated at a final concentration of 10 uM with human intestinal Caco-2 cells at 37°C, 5% CO2 with a relative humidity of 95%. After 120 minutes the apical compartment inserts and the companion plates were separated, and the apical and basolateral samples were transferred. Incubations were conducted in duplicate and the fluorescent membrane integrity marker; Lucifer Yellow was co-incubated with the SSA compounds at the start of the assay. Compounds of known permeability were used as controls and were within acceptance criteria. Further processing is described in:
Sample preparation and liquid chromatography-mass spectrometry analysis.
Sample preparation and liquid chromatography-mass spectrometry analysis: All samples were centrifuged at 3500 rpm at 4°C for 10 min to precipitate protein and enable sampling of supernatant prior to appropriate dilution for liquid chromatography-mass spectrometry (LC-MS/MS analysis). […]
(1.5 µm, 50 x 2.1 mm) at a temperature of 40°C and a binary mobile phase gradient at a flow rate of […]
0.4 mL/min. […]
For the purpose of apparent permeability determination, samples were analysed using a Waters I-Class ultra-high-performance liquid chromatography (UHPLC) system coupled to a Waters Vion mass spectrometer (Waters, Elstree, UK). Separation of analytes was achieved used an Accucore Vanquish C18+ column (1.5 µm, 50 x 2.1 mm) at a temperature of 40°C and a binary mobile phase gradient at a flow rate of 0.4 mL/min. Initial LC conditions for SSA 1-4 comprised 66% solvent A (0.1% formic acid + 5 mM ammonium acetate in water), 33% solvent B (0.1% formic acid + 5 mM ammonium acetate in methanol); this was ramped to 63% B at 1.8 min and 95% B at 1.9 min, held for 0.5 min and then immediately returned to initial conditions and held for the remaining 0.5 min of the method. Initial LC conditions for SSA 5-10 comprised 54% solvent A (0.1% formic acid + 5 mM ammonium acetate in water), 46% solvent B (0.1% formic acid + 5 mM ammonium acetate in methanol); this was ramped to 67% B at 1.8 min and 95% B at 1.9 min, held for 0.5 min and then immediately returned to initial conditions and held for the remaining 0.5 min of the method.
Sample analysis was by electrospray ionisation in negative ion mode. The capillary voltage was 2.5 kV, desolvation gas was 600°C.
For the purpose of PK determination of SSA 5, samples were analysed using a Waters I-Class ultra-high-performance liquid chromatography (UHPLC) system coupled to a Waters Xevo TQ-XS mass spectrometer. Separation of analytes was achieved using an Accucore Vanquish C18+ column (1.5 µm, 50 x 2.1 mm) at a temperature of 40°C and a binary mobile phase gradient at a flow rate of 0.4 mL/min. Initial LC conditions comprised 54% solvent A (0.1% formic acid + 5 mM ammonium acetate in water), 46% solvent B (0.1% formic acid + 5 mM ammonium acetate in methanol); this was ramped to 67% B at 1.8 min and 95% B at 1.9 min, held for 0.5 min and then immediately returned to initial conditions and held for the remaining 0.5 min of the method. Sample analysis was by electrospray ionisation combined with multiple reaction monitoring in negative ion mode. The […]
Mean blood concentration-time profile: Within these studies SSAs 3 and 5 were dosed at 1 mg/kg, to female CD-1 mice (n=9 per SSA) via an intravenous tail vein bolus dose formulation as solutions in 2 % DMSO/98 % water. Blood taken from the mouse tail vein was extracted by protein precipitation.
SSA concentrations were calculated through UPLC-MS/MS techniques, with tolbutamide as the internal standard. The assay met the acceptance criteria with >7 calibration standards within ± 20% of nominal concentration. The lower limit of quantitation was 2 ng/mL for both compounds. PK […]

[1] = % SSA recovered from the assay after 2 hours

In the case of `O=C(NCS(=O)(=O)O)Nc1ccc(C(F)(F)F)cc1` [SSA 3], the “Recovery (A-B)” value [1] is reported as 99%, the “Recovery (B-A)” value [1] is reported as 98% and the “Papp (B-A)” value (Caco-2, 10 uM, 120 minutes, n = 2 technical repeats) is reported as 5.6 ×10⁻⁶ cm/s. The “Papp (B-A) class” value (Caco-2, in words) was “moderate”.
